According to the NIST ThermoML archive (doi:10.1016/j.jct.2012.06.031):
± gives the expanded uncertainty stated by the source.

Assay: xn = mol fraction of the nth substance listed
Conditions: 101 kPa, Liquid; for viscosity: Concentric cylinders viscometry; for mass density: Vibrating tube method

c1ccncc1 [pyridine] + OCC(O)CO
Conditions | mass density [kg/m3] | viscosity [mPa·s]
288.15 K, x1 = 0.1 | 1237.23 ± 0.21 | 1518 ± 70
288.15 K, x1 = 0.2001 | 1209.17 ± 0.19 | 853.01 ± 33
288.15 K, x1 = 0.3001 | 1182.56 ± 0.18 | 438.65 ± 13
288.15 K, x1 = 0.4 | 1156.91 ± 0.17 | 202.46 ± 4
288.15 K, x1 = 0.4998 | 1130.25 ± 0.16 | 86.64 ± 0.78
288.15 K, x1 = 0.6001 | 1103.35 ± 0.15 | 29.67 ± 0.2
288.15 K, x1 = 0.6999 | 1075.51 ± 0.14 | 7.871 ± 0.068
288.15 K, x1 = 0.8001 | 1047.04 ± 0.13 | 4.241 ± 0.021
288.15 K, x1 = 0.8999 | 1018 ± 0.13 | 1.944 ± 0.013
288.15 K, x1 = 1 | 988.061 ± 0.12 | 1.03 ± 0.0089
293.15 K, x1 = 0.1 | 1233.99 ± 0.21 | 946.3 ± 38
293.15 K, x1 = 0.2001 | 1205.75 ± 0.19 | 539.76 ± 17
293.15 K, x1 = 0.3001 | 1178.91 ± 0.18 | 283.85 ± 6.8
293.15 K, x1 = 0.4 | 1153.16 ± 0.17 | 135.63 ± 1.9
293.15 K, x1 = 0.4998 | 1126.26 ± 0.15 | 60.5 ± 0.28
293.15 K, x1 = 0.6001 | 1099.12 ± 0.15 | 22.37 ± 0.11
293.15 K, x1 = 0.6999 | 1071.23 ± 0.14 | 6.966 ± 0.034
293.15 K, x1 = 0.8001 | 1042.41 ± 0.13 | 3.639 ± 0.017
293.15 K, x1 = 0.8999 | 1013.18 ± 0.13 | 1.748 ± 0.011
293.15 K, x1 = 1 | 983.038 ± 0.12 | 0.9588 ± 0.0087
298.15 K, x1 = 0.1 | 1230.73 ± 0.21 | 608.94 ± 21
298.15 K, x1 = 0.2001 | 1202.25 ± 0.19 | 352.75 ± 9.4
298.15 K, x1 = 0.3001 | 1175.23 ± 0.18 | 189.75 ± 3.5
298.15 K, x1 = 0.4 | 1149.36 ± 0.17 | 93.82 ± 0.88
298.15 K, x1 = 0.4998 | 1122.23 ± 0.15 | 43.51 ± 0.21
298.15 K, x1 = 0.6001 | 1094.86 ± 0.15 | 17.25 ± 0.082
298.15 K, x1 = 0.6999 | 1066.63 ± 0.14 | 6.111 ± 0.029
298.15 K, x1 = 0.8001 | 1037.6 ± 0.13 | 3.155 ± 0.016
298.15 K, x1 = 0.8999 | 1008.34 ± 0.13 | –
298.15 K, x1 = 1 | 978.006 ± 0.12 | 0.8943 ± 0.0086
303.15 K, x1 = 0.1 | 1227.44 ± 0.21 | 403.56 ± 12
303.15 K, x1 = 0.2001 | 1198.74 ± 0.19 | 237.3 ± 5.1
303.15 K, x1 = 0.3001 | 1171.52 ± 0.17 | 130.53 ± 1.8
303.15 K, x1 = 0.4 | 1145.49 ± 0.16 | 66.75 ± 0.36
303.15 K, x1 = 0.4998 | 1118.17 ± 0.15 | 32.21 ± 0.15
303.15 K, x1 = 0.6001 | 1090.58 ± 0.14 | 13.57 ± 0.063
303.15 K, x1 = 0.6999 | 1062.16 ± 0.14 | 5.257 ± 0.025
303.15 K, x1 = 0.8001 | 1033.11 ± 0.13 | 2.765 ± 0.014
303.15 K, x1 = 0.8999 | 1003.49 ± 0.13 | 1.439 ± 0.01
303.15 K, x1 = 1 | 972.967 ± 0.12 | 0.8355 ± 0.0085
308.15 K, x1 = 0.1 | 1224.12 ± 0.2 | 275.49 ± 6.5
308.15 K, x1 = 0.2001 | 1195.32 ± 0.19 | 164.23 ± 2.7
308.15 K, x1 = 0.3001 | 1167.95 ± 0.17 | 92.29 ± 0.84
308.15 K, x1 = 0.4 | 1141.6 ± 0.16 | 48.72 ± 0.23
308.15 K, x1 = 0.4998 | 1114.07 ± 0.15 | 24.45 ± 0.11
308.15 K, x1 = 0.6001 | 1086.27 ± 0.14 | 10.87 ± 0.05
308.15 K, x1 = 0.6999 | 1057.66 ± 0.14 | 4.532 ± 0.022
308.15 K, x1 = 0.8001 | 1028.43 ± 0.13 | 2.441 ± 0.013
308.15 K, x1 = 0.8999 | 998.628 ± 0.13 | 1.316 ± 0.0097
308.15 K, x1 = 1 | 967.913 ± 0.12 | 0.7837 ± 0.0084
313.15 K, x1 = 0.1 | 1220.77 ± 0.2 | 192.54 ± 3.6
313.15 K, x1 = 0.2001 | 1191.92 ± 0.19 | 116.47 ± 1.4
313.15 K, x1 = 0.3001 | 1164.44 ± 0.17 | 66.86 ± 0.35
313.15 K, x1 = 0.4 | 1137.67 ± 0.16 | 36.35 ± 0.17
313.15 K, x1 = 0.4998 | 1109.95 ± 0.15 | 18.9 ± 0.085
313.15 K, x1 = 0.6001 | 1081.93 ± 0.14 | 8.841 ± 0.04
313.15 K, x1 = 0.6999 | 1053.14 ± 0.14 | 3.95 ± 0.019
313.15 K, x1 = 0.8001 | 1023.73 ± 0.13 | 2.172 ± 0.012
313.15 K, x1 = 0.8999 | 993.746 ± 0.13 | 1.209 ± 0.0094
313.15 K, x1 = 1 | 962.849 ± 0.12 | 0.7354 ± 0.0083
318.15 K, x1 = 0.1 | 1217.48 ± 0.2 | 137.7 ± 2
318.15 K, x1 = 0.2001 | 1188.63 ± 0.19 | 84.41 ± 0.67
318.15 K, x1 = 0.3001 | 1160.93 ± 0.17 | 49.31 ± 0.23
318.15 K, x1 = 0.4 | 1133.7 ± 0.16 | 27.66 ± 0.12
318.15 K, x1 = 0.4998 | 1105.79 ± 0.15 | 14.88 ± 0.066
318.15 K, x1 = 0.6001 | 1077.57 ± 0.14 | 7.298 ± 0.033
318.15 K, x1 = 0.6999 | 1048.59 ± 0.14 | 3.463 ± 0.017
318.15 K, x1 = 0.8001 | 1019 ± 0.13 | 1.944 ± 0.011
318.15 K, x1 = 0.8999 | 988.846 ± 0.13 | 1.114 ± 0.0092
318.15 K, x1 = 1 | 957.769 ± 0.12 | 0.6912 ± 0.0082
323.15 K, x1 = 0.1 | 1214.26 ± 0.2 | 101.38 ± 1
323.15 K, x1 = 0.2001 | 1185.34 ± 0.18 | 63.12 ± 0.29
323.15 K, x1 = 0.3001 | 1157.38 ± 0.17 | 38.06 ± 0.17
323.15 K, x1 = 0.4 | 1129.71 ± 0.16 | 21.58 ± 0.091
323.15 K, x1 = 0.4998 | 1101.59 ± 0.15 | 12.04 ± 0.05
323.15 K, x1 = 0.6001 | 1073.01 ± 0.14 | 6.153 ± 0.027
323.15 K, x1 = 0.6999 | 1044.02 ± 0.14 | 3.06 ± 0.015
323.15 K, x1 = 0.8001 | 1014.26 ± 0.13 | 1.769 ± 0.011
323.15 K, x1 = 0.8999 | 983.927 ± 0.13 | 1.038 ± 0.009
323.15 K, x1 = 1 | 952.673 ± 0.12 | 0.6507 ± 0.0081
